{
  "source": "patent US20210071137A1",
  "about": "“PRODUCTION METHOD FOR CELL MASS INCLUDING NEURAL CELLS/TISSUE AND NON-NEURAL EPITHELIAL TISSUE, AND CELL MASS FROM SAME” (SUMITOMO CHEMICAL COMPANY, LIMITED, priority 2017, published 2021)",
  "key": {"[1]": {"system": "Human ES cells (KhES-1 strain)", "assay": "Effect of each Wnt signal transduction pathway inhibiting substance on production of cell mass containing neural tissue and nonneural epithelial tissue (Example 7)", "type": "cell-based", "conditions": "inhibitor added from start of suspension culturing (IWP-2 2 or 5 μM, C-59 2 μM, IWP-L6 1 or 10 μM, LGK974 1 or 5 μM, KY 02111 1 or 5 μM, XAV939 1 μM) with SB-431542 1 μM; BMP4 1.5 nM on day 2; bright field observation day 10", "procedure": "Human ES cells (KhES-1 strain) were cultured under feeder-free conditions according to the method described in Scientific Reports, 4, 3594 (2014). As the feeder-free medium, StemFit medium was used and, as the feeder-free scaffold, Laminin 511-E8 was used. Specific maintenance culturing operation was performed in the same manner as in Example 1.\nThe thus-prepared subconfluent human ES cells were washed with PBS, subjected to an enzyme treatment using Accumax, a mukessei medium medium for differentiation induction was added, and the cells were scraped from the surface of the culture dish by using a cell scraper and dispersed into single cells by pipetting. Thereafter, the aforementioned human ES cells dispersed into single cells were suspended in 100 μl of a serum-free medium at 1.2×10^4 cells per well of a non-cell-adhesive 96-well culture plate (PrimeSurface 96V-bottom plate, manufactured by SUMITOMO BAKELITE), and cultured in suspension under the conditions of 37° C., 5% CO2. As the serum-free medium (gfCDM+KSR) therefor, a serum-free medium which is a 1:1 mixture of F-12+Glutamax medium and IMDM+Glutamax medium supplemented with 5% Knockout Serum Replacement, 450 μM 1-mono thioglycerol, 1× Chemically defined lipid concentrate, 50u/ml penicillin-50 μg/ml streptomycin was used. At the time of the start of suspension culturing (day 0 from the start of suspension culturing, start of step 1), Y27632 (final concentration 20 μM) and SB-431542 (1 μM) were added to the aforementioned serum-free medium. As the Wnt signal transduction pathway inhibiting substance, IWP-2 (manufactured by Tocris Bioscience, 2 or 5 μM), C-59 (manufactured by Cayman Chemicals, 2 μM), IWP-L6 (manufactured by AdooQ bioscience, 1 or 10 μM), LGK974 (manufactured by Cayman Chemicals, 1 or 5 μM), KY 02111 (manufactured by Cayman Chemicals, 1 or 5 μM), or XAV939 (manufactured by Cayman Chemicals, 1 μM) was added at the start of the suspension culturing, and the condition with the addition of DMSO alone as a control of no addition of a Wnt signal transduction pathway inhibiting substance was performed. Thereafter, a serum-free medium not containing Y27632 and containing each Wnt signal transduction pathway inhibiting substance, SB-431542 and BMP4 was added at 100 μl per well on day 2 from the start of suspension culturing. BMP4 was added at 3 nM to the medium so that the final concentration in the well could be 1.5 nM. A half amount of the medium was changed with a serum-free medium not containing Y27632 or BMP and containing each Wnt signal transduction pathway inhibiting substance and SB-431542 on day 6 from the start of suspension culturing. Bright field observation was performed under an inverted microscope (manufactured by KEYENCE CORPORATION, BIOREVO) on day 10 from the start of suspension culturing (FIGS. 8A-K)."}, "[2]": {"system": "Human ES cells (KhES-1 strain)", "assay": "Effect of compound pre-treatment before differentiation induction on quality grade of cell masses (Example 8)", "type": "cell-based", "conditions": "day 15 of differentiation induction; for number of Grade 1 cell masses (near spherical, not less than 80% of circumference coated with nonneural epithelium) / number of Grade 2 cell masses (80% to 40% of circumference coated with nonneural epithelium, or distorted shape) / number of Grade 3 cell masses (nonneural epithelium on surface not more than 40%): of 32 cell masses, pre-treatment 6 days after seeding (300 nM SAG and/or 5 μM SB-431542)", "procedure": "Human ES cells (KhES-1 strain) were cultured under feeder-free conditions according to the method described in Scientific Reports, 4, 3594 (2014). As the feeder-free medium, StemFit medium was used and, as the feeder-free scaffold, Laminin 511-E8 was used. Specific maintenance culturing operation was performed in the same manner as in Example 1. Cells under 4 conditions were prepared including conditions in which, when the cultured cells are used for differentiation induction, nothing is simultaneously added with medium change with […] medium (Control), conditions in which 300 nM SAG alone is added (+300 nM SAG), conditions in which 5 µM SB-431542 alone is added (+5 μM SB-431542), and conditions in which SAG and SB431542 are simultaneously added (+SAG/SB) at 6 days after seeding. The next day of the above-mentioned treatment, human ES cells under 4 conditions that reached subconfluence were each subjected to differentiation induction by suspension culturing into a cell mass containing neural tissue and nonneural epithelial tissue according to the method described in Example 1. Thereafter, on day 15 of differentiation induction, bright field observation was performed using an inverted microscope (manufactured by KEYENCE CORPORATION, BIOREVO). The cell masses formed after each pre-treatment were evaluated in three stages of cell masses with near spherical form in which not less than 80% of the whole circumference is coated with nonneural epithelium (Grade 1, e.g.-FIG. 9A); cell masses in which 80% to 40% of the whole circumference is coated with nonneural epithelium, or with a distorted shape (Grade 2, e.g.-FIG. 9B); and cell masses in which the proportion of nonneural epithelium on the cell mass surface is not more than 40% (Grade 3, e.g.=FIG. 9C)."}},
  "data": [
    {"smiles": "Cc1cc(-c2ccc(CC(=O)Nc3ccc(-c4cccnc4)cc3)cc2)ccn1", "note": "[C-59]", "values": [
      {"measurement": "formation of cell mass having nonneural epithelial tissue on the surface", "setting": "[1]", "value": "a cell mass having nonneural epithelial tissue on the surface was formed"}
    ]},
    {"smiles": "Cc1ccc2nc(NC(=O)CSc3nc4c(c(=O)n3-c3ccccc3)SCC4)sc2c1", "note": "[IWP-2]", "values": [
      {"measurement": "formation of cell mass having nonneural epithelial tissue on the surface", "setting": "[1]", "value": "a cell mass having nonneural epithelial tissue on the surface was formed"}
    ]},
    {"smiles": "O=C(CSc1nc2c(c(=O)n1-c1ccccc1)SCC2)Nc1ccc(-c2ccccc2)cn1", "note": "[IWP-L6]", "values": [
      {"measurement": "formation of cell mass having nonneural epithelial tissue on the surface", "setting": "[1]", "value": "a cell mass having nonneural epithelial tissue on the surface was formed"}
    ]},
    {"smiles": "COc1ccc(CCC(=O)Nc2nc3ccc(Cl)cc3s2)cc1OC", "note": "[KY02111]", "values": [
      {"measurement": "formation of cell mass having nonneural epithelial tissue on the surface", "setting": "[1]", "value": "a cell mass having nonneural epithelial tissue on the surface was formed"}
    ]},
    {"smiles": "Cc1cc(-c2ncc(CC(=O)Nc3ccc(-c4cnccn4)cn3)cc2C)ccn1", "note": "[LGK974]", "values": [
      {"measurement": "formation of cell mass having nonneural epithelial tissue on the surface", "setting": "[1]", "value": "a cell mass having nonneural epithelial tissue on the surface was formed"}
    ]},
    {"smiles": "CNC1CCC(N(Cc2cccc(-c3ccncc3)c2)C(=O)c2sc3ccccc3c2Cl)CC1", "note": "(stereo not shown) [SAG, N-Methyl-N′-(3-pyridinylbenzyl)-N′-(3-chlorobenzo[b]thiophene-2-carbonyl)-1,4-diaminocyclohexane]", "values": [
      {"measurement": "number of Grade 1 cell masses (near spherical, not less than 80% of circumference coated with nonneural epithelium)", "setting": "[2]", "value": 10},
      {"measurement": "number of Grade 2 cell masses (80% to 40% of circumference coated with nonneural epithelium, or distorted shape)", "setting": "[2]", "value": 18},
      {"measurement": "number of Grade 3 cell masses (nonneural epithelium on surface not more than 40%)", "setting": "[2]", "value": 4}
    ]},
    {"smiles": "NC(=O)c1ccc(-c2nc(-c3ccc4c(c3)OCO4)c(-c3ccccn3)[nH]2)cc1", "note": "[SB-431542, 4-(5-benzol[1,3]dioxol-5-yl-4-pyridin-2-yl-1H-imidazol-2-yl)-benzamide]", "values": [
      {"measurement": "number of Grade 1 cell masses (near spherical, not less than 80% of circumference coated with nonneural epithelium)", "setting": "[2]", "value": 28},
      {"measurement": "number of Grade 2 cell masses (80% to 40% of circumference coated with nonneural epithelium, or distorted shape)", "setting": "[2]", "value": 4},
      {"measurement": "number of Grade 3 cell masses (nonneural epithelium on surface not more than 40%)", "setting": "[2]", "value": 0},
      {"measurement": "proportion of Grade 1 cell masses as compared to Control with no treatment", "setting": "[2]; pre-treatment 6 days after seeding", "value": "drastically improved"}
    ]},
    {"smiles": "Oc1nc(-c2ccc(C(F)(F)F)cc2)nc2c1CSCC2", "note": "[XAV939]", "values": [
      {"measurement": "formation of cell mass having nonneural epithelial tissue on the surface", "setting": "[1]", "value": "a cell mass having nonneural epithelial tissue on the surface was formed"}
    ]}
  ]
}
